Measured values: patent publication US20020035061A1, “COMPOSITIONS AND METHODS FOR TREATING INFECTIONS USING CATIONIC PEPTIDES ALONE OR IN COMBINATION WITH ANTIBIOTICS” (priority 1996, published 2002)
Where “and” joins values, the source holds several entries; their conditions need not be identical. Identical values can stand only once. Like-named read-outs stand apart in the source and are kept apart here.

What was measured:
Type in all cases: cell-based
H. influenzae = test: Agarose dilution assay (MIC)
K. pneumoniae = system: K. pneumoniae
S. aureus = conditions: for Peptide MIC values: agarose dilution; for MIC, Peptide: unmodified parent peptide
S. epidermidis = system: S. epidermidis
bacterial isolates = test: microbe, parasite or virus in culture
[1] = system: H460, non-small lung tumor; test: Cell death by Cytotox (Promega) lactate dehydrogenase release; conditions: LDH release
Procedure: (§1) In addition, APO-peptides and parent peptides are tested against a panel of cancer cell lines. Cell death is measured using the Cytotox (Promega) assay kit which measures the release of lactate dehydrogenase.
(§2) PBL, peripheral blood lymphocytes; HUVEC, human umbilical vein endothelial cells; H460,non-small lung tumor; K562, chronic myelogenous leukemia; DoHH-2, B-cell cell lymphoma; P388, lymphocytic leukemia; P388ADR, lymphocytic leukemia, multidrug resistant; MCF-7, breast carcinoma; MCF-7ADR, breast carcinoma, multidrug resistant.

[2] = system: HUVEC, human umbilical vein endothelial cells; test: as above; conditions: LDH release
Procedure: as §1, §2

MCF-7, breast carcinoma = test: as above; conditions: LDH release
Procedure: as §1, §2

[3] = system: P388, lymphocytic leukemia; test: as above; conditions: LDH release
Procedure: as §1, §2

[4] = system: PBL, peripheral blood lymphocytes; test: as above; conditions: LDH release
Procedure: as §1, §2

[5] = P. aeruginosa 23, Piperacillin section
[6] = S. aureus 19 MRSA, Piperacillin section
[7] = peptide + Piperacillin, P. aeruginosa 23
[8] = peptide + Piperacillin, S. aureus 19 MRSA

Sequence: ILKKWPWWPWRRK [MBI 11CN]
- MIC (H. influenzae; H. influenzae HIN001): >128 µg/mL
- MIC (K. pneumoniae; K. pneumoniae KP002): 128 µg/mL
- MIC (S. aureus; S. aureus SA003): 2 µg/mL
- Peptide MIC values (S. aureus; S. aureus MRSA9): 2 µg/mL
- Peptide MIC values (S. aureus; S. aureus MRSA13): 16 µg/mL
- Peptide MIC values (S. aureus; S. aureus MRSA17): 4 µg/mL
- MIC (S. epidermidis; S. epidermidis SE001): 2 µg/mL
- Peptide MIC + Tobramycin (bacterial isolates; A. baumannii ABI001): 16 µg/mL
- Tobramycin MIC + Peptide (bacterial isolates; A. baumannii ABI001): 4 µg/mL
- Peptide MIC Alone (bacterial isolates; A. baumannii ABI001, Tobramycin section): 64 µg/mL
- Peptide MIC + Tobramycin (bacterial isolates; E. coli ECO006): 0.25 µg/mL
- Tobramycin MIC + Peptide (bacterial isolates; E. coli ECO006): 4 µg/mL
- Peptide MIC Alone (bacterial isolates; E. coli ECO006, Tobramycin section): 8 µg/mL
- Peptide MIC + Piperacillin (bacterial isolates; P. aeruginosa 22): 32 µg/mL
- Piperacillin MIC + Peptide (bacterial isolates; P. aeruginosa 22): 4 µg/mL
- Peptide MIC Alone (bacterial isolates; P. aeruginosa 22, Piperacillin section): 64 µg/mL
- Peptide MIC + Piperacillin (bacterial isolates; P. aeruginosa 23): 4 µg/mL
- Piperacillin MIC + Peptide (bacterial isolates; P. aeruginosa 23): 64 µg/mL
- Peptide MIC Alone (bacterial isolates; [5]): 128 µg/mL
- Peptide MIC + Tobramycin (bacterial isolates; P. aeruginosa PA032): 4 µg/mL
- Tobramycin MIC + Peptide (bacterial isolates; P. aeruginosa PA032): 8 µg/mL
- Peptide MIC Alone (bacterial isolates; P. aeruginosa PA032, Tobramycin section): >128 µg/mL
- Peptide MIC + Piperacillin (bacterial isolates; S. aureus 18 MRSA): 16 µg/mL
- Piperacillin MIC + Peptide (bacterial isolates; S. aureus 18 MRSA): 0.5 µg/mL
- Peptide MIC Alone (bacterial isolates; S. aureus 18 MRSA, Piperacillin section): 32 µg/mL
- Peptide MIC + Piperacillin (bacterial isolates; S. aureus 19 MRSA): 1 µg/mL
- Piperacillin MIC + Peptide (bacterial isolates; S. aureus 19 MRSA): 64 µg/mL
- Peptide MIC Alone (bacterial isolates; [6]): 8 µg/mL
- Peptide MIC + Tobramycin (bacterial isolates; S. maltophilia SMA029): 2 µg/mL
- Tobramycin MIC + Peptide (bacterial isolates; S. maltophilia SMA029): 64 µg/mL
- Peptide MIC Alone (bacterial isolates; S. maltophilia SMA029, Tobramycin section): >128 µg/mL
- Peptide MIC + Tobramycin (bacterial isolates; S. maltophilia SMA035): 32 µg/mL
- Tobramycin MIC + Peptide (bacterial isolates; S. maltophilia SMA035): 4 µg/mL
- Peptide MIC Alone (bacterial isolates; S. maltophilia SMA035, Tobramycin section): 128 µg/mL
- FIC (bacterial isolates; peptide + Piperacillin, P. aeruginosa 22): 0.52
- FIC (bacterial isolates; [7]): 0.53
- FIC (bacterial isolates; peptide + Piperacillin, S. aureus 18 MRSA): 0.50
- FIC (bacterial isolates; [8]): 0.38
- FIC (bacterial isolates; peptide + Tobramycin, A. baumannii ABI001): 0.50
- FIC (bacterial isolates; peptide + Tobramycin, E. coli ECO006): 0.53
- FIC (bacterial isolates; peptide + Tobramycin, P. aeruginosa PA032): 0.52
- FIC (bacterial isolates; peptide + Tobramycin, S. maltophilia SMA029): 0.51
- FIC (bacterial isolates; peptide + Tobramycin, S. maltophilia SMA035): 0.38
- LC50 ± S.E., H460 [1]: 200 µg/mL
- LC50 ± S.E., HUVEC [2]: >190 µg/mL
- LC50 ± S.E., MCF-7 (MCF-7, breast carcinoma): 11.8 ± 9 µg/mL
- LC50 ± S.E., P388 [3]: 30 µg/mL
- LC50 ± S.E., PBL [4]: 57 µg/mL

Sequence: ILRWPWWPWRRK [MBI 11B7CN]
- MIC (H. influenzae; H. influenzae strain HIN002): >128 µg/mL
- MIC, Peptide (K. pneumoniae; K. pneumoniae KP001, unmodified parent peptide): 4 µg/mL and 8 µg/mL
- MIC (K. pneumoniae; K. pneumoniae strain KP0011): 32 µg/mL
- MIC, Peptide (S. aureus; S. aureus SA010): 1 µg/mL
- MIC, Peptide (S. aureus; S. aureus SA011): 4 µg/mL
- MIC, Peptide (S. aureus; S. aureus SA014): 2 µg/mL
- MIC, Peptide (S. aureus; S. aureus SA018): 16 µg/mL
- MIC, Peptide (S. aureus; S. aureus SA025): 1 µg/mL
- MIC, Peptide (S. aureus; S. aureus SA093): 1 µg/mL
- MIC (S. aureus; S. aureus strain SA009): 2 µg/mL
- MIC, Peptide (S. epidermidis; S. epidermidis SE010, unmodified parent peptide): 2 µg/mL
- MIC (S. epidermidis; S. epidermidis strain SE003): 2 µg/mL
- Peptide MIC Alone (bacterial isolates; 2. Ceftriaxone, A. baumannii ABI002): 32 µg/mL
- Peptide MIC Alone (bacterial isolates; 2. Ceftriaxone, A. baumannii ABI006): 32 µg/mL
- Peptide MIC Alone (bacterial isolates; 2. Ceftriaxone, B. cepacia BC003): >128 µg/mL
- Peptide MIC Alone (bacterial isolates; 2. Ceftriaxone, P. aeruginosa PA008): 128 µg/mL
- Peptide MIC Alone (bacterial isolates; 2. Ceftriaxone, P. aeruginosa PA024): >128 µg/mL
- Peptide MIC Alone (bacterial isolates; 2. Ceftriaxone, S. maltophilia SMA020): 16 µg/mL
- Peptide MIC Alone (bacterial isolates; 2. Ceftriaxone, S. maltophilia SMA021): 32 µg/mL
- Peptide MIC Alone (bacterial isolates; 2. Ceftriaxone, S. maltophilia SMA023): 128 µg/mL
- Ceftriaxone MIC + Peptide (bacterial isolates; A. baumannii ABI002): 8 µg/mL
- Peptide MIC + Ceftriaxone (bacterial isolates; A. baumannii ABI002): 8 µg/mL
- Ceftriaxone MIC + Peptide (bacterial isolates; A. baumannii ABI006): 16 µg/mL
- Ceftriaxone MIC + Peptide (bacterial isolates; B. cepacia BC003): 16 µg/mL
- Peptide MIC + Piperacillin (bacterial isolates; E. cloacae 6): 16 µg/mL
- Piperacillin MIC + Peptide (bacterial isolates; E. cloacae 6): 16 µg/mL
- Peptide MIC Alone (bacterial isolates; E. cloacae 6, Piperacillin section): 32 µg/mL
- Peptide MIC + Piperacillin (bacterial isolates; E. cloacae 9): 16 µg/mL
- Piperacillin MIC + Peptide (bacterial isolates; E. cloacae 9): 1 µg/mL
- Peptide MIC Alone (bacterial isolates; E. cloacae 9, Piperacillin section): 32 µg/mL
- Peptide MIC + Piperacillin (bacterial isolates; E. cloacae 10): 16 µg/mL
- Piperacillin MIC + Peptide (bacterial isolates; E. cloacae 10): 0.5 µg/mL
- Peptide MIC Alone (bacterial isolates; E. cloacae 10, Piperacillin section): 32 µg/mL
- Peptide MIC + Piperacillin (bacterial isolates; H. influenzae 1): 0.125 µg/mL
- Piperacillin MIC + Peptide (bacterial isolates; H. influenzae 1): 32 µg/mL
- Peptide MIC Alone (bacterial isolates; H. influenzae 1, Piperacillin section): >128 µg/mL
- Peptide MIC + Piperacillin (bacterial isolates; H. influenzae SB1): 0.125 µg/mL
- Piperacillin MIC + Peptide (bacterial isolates; H. influenzae SB1): 0.25 µg/mL
- Peptide MIC Alone (bacterial isolates; H. influenzae SB1, Piperacillin section): >128 µg/mL
- Peptide MIC + Piperacillin (bacterial isolates; P. aeruginosa 23): 64 µg/mL
- Piperacillin MIC + Peptide (bacterial isolates; P. aeruginosa 23): 2 µg/mL
- Peptide MIC Alone (bacterial isolates; [5]): 128 µg/mL
- Ceftriaxone MIC + Peptide (bacterial isolates; P. aeruginosa PA008): 16 µg/mL
- Peptide MIC + Ceftriaxone (bacterial isolates; P. aeruginosa PA008): 16 µg/mL
- Ceftriaxone MIC + Peptide (bacterial isolates; P. aeruginosa PA024): 32 µg/mL
- Peptide MIC + Ceftriaxone (bacterial isolates; P. aeruginosa PA024): 0.125 µg/mL
- Peptide MIC + Piperacillin (bacterial isolates; S. aureus 19 MRSA): 1 µg/mL
- Piperacillin MIC + Peptide (bacterial isolates; S. aureus 19 MRSA): 32 µg/mL
- Peptide MIC Alone (bacterial isolates; [6]): 4 µg/mL
- Peptide MIC + Piperacillin (bacterial isolates; S. maltophilia 5): 64 µg/mL
- Piperacillin MIC + Peptide (bacterial isolates; S. maltophilia 5): 64 µg/mL
- Peptide MIC Alone (bacterial isolates; S. maltophilia 5, Piperacillin section): >128 µg/mL
- Peptide MIC + Piperacillin (bacterial isolates; S. maltophilia 9): 64 µg/mL
- Piperacillin MIC + Peptide (bacterial isolates; S. maltophilia 9): 64 µg/mL
- Peptide MIC Alone (bacterial isolates; S. maltophilia 9, Piperacillin section): >128 µg/mL
- Peptide MIC + Piperacillin (bacterial isolates; S. maltophilia 11): 32 µg/mL
- Piperacillin MIC + Peptide (bacterial isolates; S. maltophilia 11): 64 µg/mL
- Peptide MIC Alone (bacterial isolates; S. maltophilia 11, Piperacillin section): >128 µg/mL
- Ceftriaxone MIC + Peptide (bacterial isolates; S. maltophilia SMA020): 64 µg/mL
- Peptide MIC + Ceftriaxone (bacterial isolates; S. maltophilia SMA020): 8 µg/mL
- Ceftriaxone MIC + Peptide (bacterial isolates; S. maltophilia SMA021): 64 µg/mL
- Peptide MIC + Ceftriaxone (bacterial isolates; S. maltophilia SMA021): 8 µg/mL
- Ceftriaxone MIC + Peptide (bacterial isolates; S. maltophilia SMA023): 32 µg/mL
- Peptide MIC + Ceftriaxone (bacterial isolates; S. maltophilia SMA023): 16 µg/mL
- Peptide MIC + Piperacillin (bacterial isolates; S. marcescens 1): 4 µg/mL
- Piperacillin MIC + Peptide (bacterial isolates; S. marcescens 1): 8 µg/mL
- Peptide MIC Alone (bacterial isolates; S. marcescens 1, Piperacillin section): >128 µg/mL
- FIC (bacterial isolates; peptide + Ceftriaxone, A. baumannii ABI002): 0.50
- FIC (bacterial isolates; peptide + Ceftriaxone, A. baumannii ABI006): 0.25
- FIC (bacterial isolates; peptide + Ceftriaxone, B. cepacia BC003): 0.52
- FIC (bacterial isolates; peptide + Ceftriaxone, P. aeruginosa PA008): 0.25
- FIC (bacterial isolates; peptide + Ceftriaxone, P. aeruginosa PA024): 0.50
- FIC (bacterial isolates; peptide + Ceftriaxone, S. maltophilia SMA020): 0.75
- FIC (bacterial isolates; peptide + Ceftriaxone, S. maltophilia SMA021): 0.50
- FIC (bacterial isolates; peptide + Ceftriaxone, S. maltophilia SMA023): 0.38
- FIC (bacterial isolates; peptide + Piperacillin, E. cloacae 6): 0.56
- FIC (bacterial isolates; peptide + Piperacillin, E. cloacae 9): 0.50
- FIC (bacterial isolates; peptide + Piperacillin, E. cloacae 10): 0.50
- FIC (bacterial isolates; peptide + Piperacillin, H. influenzae 1): 0.50
- FIC (bacterial isolates; peptide + Piperacillin, H. influenzae SB1): 0.50
- FIC (bacterial isolates; [7]): 0.56
- FIC (bacterial isolates; [8]): 0.50
- FIC (bacterial isolates; peptide + Piperacillin, S. maltophilia 5): 0.50
- FIC (bacterial isolates; peptide + Piperacillin, S. maltophilia 9): 0.50
- FIC (bacterial isolates; peptide + Piperacillin, S. maltophilia 11): 0.38
- FIC (bacterial isolates; peptide + Piperacillin, S. marcescens 1): 0.27
- LC50 ± S.E., H460 [1]: 26 ± 25 µg/mL
- LC50 ± S.E., HUVEC [2]: 90 ± 23 µg/mL
- LC50 ± S.E., MCF-7 (MCF-7, breast carcinoma): >700 µg/mL
- LC50 ± S.E., P388 [3]: 13.8 µg/mL
- LC50 ± S.E., PBL [4]: 24 ± 10 µg/mL
